Measured values as given in paper PMC5247395 (EJNMMI Research, 2017).

Columns and labels:
[1] = system: PC-3 PIP/flu tumor-bearing mice; experiment: Biodistribution in PC-3 PIP/flu tumor-bearing mice; details: i.v.; for PC-3 flu Tumor: PSMA^neg xenograft; for PC-3 PIP Tumor: PSMA^pos xenograft
Method: In vivo experiments were approved by the local veterinarian department and conducted in accordance with the Swiss law of animal protection. All mice were obtained from Charles River Laboratories (Sulzfeld, Germany), at the age of 5–6 weeks. Female, athymic nude Balb/c mice were subcutaneously inoculated with PC-3 PIP cells (6 × 10^6 cells in 100 μL Hank’s balanced salt solution (HBSS) with Ca^2+/Mg^2+) on the right shoulder and with PC-3 flu cells (5 × 10^6 cells in 100 μL HBSS with Ca^2+/Mg^2+) on the left shoulder 2 weeks before the performance of the experiments.
Mice were sacrificed at different time points post injection (p.i.) of the radioligands. Selected tissues and organs were collected, weighed and measured using a γ-counter. The results were decay-corrected and listed as a percentage of the injected activity per gram of tissue mass (% IA/g).

[2] = n-octanol/PBS distribution coefficient (shake-flask); format: physicochemical; details: n-octanol/PBS pH 7.4, shake-flask
Method: The distribution coefficients (logD values) of the radioligands were determined by a shake-flask method using liquid-liquid extraction followed by phase separation, as previously reported (Additional file 1). In brief, the PSMA ligands were labeled at a specific activity of 5 MBq/nmol. […] The vials were vortexed vigorously for 1 min and then centrifuged for 6 min for phase separation. The concentration of radioactivity in a defined volume of each layer was measured in a γ-counter (Perkin Elmer, Wallac Wizard 1480). The distribution coefficients were expressed as the logarithm of the ratio of counts per minute (cpm) measured in the n-octanol phase to the cpm measure in the PBS phase. The values are reported as the average of at least three independent measurements (± standard deviation, SD), each performed with five replicates. Data were analyzed for significance using a one-way ANOVA test (GraphPad Prism software, version 7). A p value of <0.05 was considered as statistically significant.

PSMA = target: T1, PSMA (Homo sapiens, UniProt Q04609); experiment: Saturation binding assay on PC-3 PIP cells (PSMA affinity, KD); details: for Kd: 30 min at 4 °C, saturation binding; for Relative PSMA-binding affinity: inverse molar ratio of average KD values, ^177Lu-PSMA-617 set to 1
T1 construct: expressed in transfected cells; host or cells: PC-3 PIP cells (PSMA-positive subline of human PC-3 prostate cancer cells), provided by Prof; Martin Pomper, Johns Hopkins
T1 sequence (Q04609 whole entry): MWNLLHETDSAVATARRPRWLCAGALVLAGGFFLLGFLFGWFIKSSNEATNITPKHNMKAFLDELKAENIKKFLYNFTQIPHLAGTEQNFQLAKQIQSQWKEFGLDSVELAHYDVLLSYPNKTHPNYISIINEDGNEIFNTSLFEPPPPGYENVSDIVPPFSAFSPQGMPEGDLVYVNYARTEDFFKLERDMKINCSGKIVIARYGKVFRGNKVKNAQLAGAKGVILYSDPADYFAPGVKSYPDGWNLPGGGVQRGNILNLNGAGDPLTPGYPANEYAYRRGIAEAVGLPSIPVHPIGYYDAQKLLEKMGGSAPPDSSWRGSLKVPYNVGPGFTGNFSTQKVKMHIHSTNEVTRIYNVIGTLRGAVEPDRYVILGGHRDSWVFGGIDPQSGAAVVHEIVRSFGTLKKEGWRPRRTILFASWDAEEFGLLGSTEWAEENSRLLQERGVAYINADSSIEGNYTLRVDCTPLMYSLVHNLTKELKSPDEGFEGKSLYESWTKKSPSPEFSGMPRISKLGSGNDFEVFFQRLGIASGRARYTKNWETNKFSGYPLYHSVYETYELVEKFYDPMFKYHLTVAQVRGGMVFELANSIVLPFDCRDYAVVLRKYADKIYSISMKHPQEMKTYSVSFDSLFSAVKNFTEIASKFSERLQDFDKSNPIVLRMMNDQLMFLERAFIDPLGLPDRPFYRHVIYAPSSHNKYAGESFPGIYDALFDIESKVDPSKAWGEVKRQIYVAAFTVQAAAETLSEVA
Method: Determination of the PSMA affinity was performed by saturation binding assays using PC-3 PIP cells and different concentrations of ^nat/44Sc-, ^nat/177Lu-, ^nat/68Ga-PSMA-617, or ^nat/68Ga-PSMA-11, respectively (Additional file 1).
Determination of the KD values was performed by saturation binding assays using PSMA^pos PC-3 PIP cells. After successful radiolabeling of the PSMA ligands, a 2.5-fold molar excess of the corresponding cold metal was added and the reaction mixture was incubated for another 10 min at 95 °C. Quality control was performed again after reaction of the radioligands with the “cold” metal as described in the main manuscript.
The cells were seeded in 48-well-plates (8 x 10^5 cells in 500 uL RPMI medium/well) allowing adhesion and growth overnight at 37 °C and 5% CO2. For the entire experiment, the well-plates were kept on ice. After removal of the supernatant, the cells were washed once with ice-cold PBS pH 7.4 prior to the addition of different concentrations (1 nM-2 µM) of either ^nat/44Sc-, ^nat/177Lu-, ^nat/67/68Ga-PSMA-617 or ^nat/67/68Ga-PSMA-11 in ice-cold RPMI medium without supplements. For the determination of non-specific binding, cell samples were incubated with 2-phosphonomethyl pentanedioic acid (2-PMPA, 200 μM). The well-plates were incubated for 30 min at 4 °C. Then, the supernatants were removed and the cells washed twice with ice-cold PBS followed by addition of NaOH (1 M, 600 µL) to each well. The cell suspensions were transferred to 4 mL tubes for measurement in a γ-counter (Wallac Wizard 1480, Perkin Elmer). The KD values were determined by plotting specific-binding (total binding minus unspecific binding) against the molar concentration of the added radioligands followed by nonlinear regression analysis using GraphPad Prism 7 software.

O=C([O-])CN1CCN(CC(=O)[O-])CCN(CC(=O)NCC2CCC(C(=O)NC(Cc3ccc4ccccc4c3)C(=O)NCCCCC(NC(=O)NC(CCC(=O)O)C(=O)O)C(=O)O)CC2)CCN(CC(=O)[O-])CC1.[68Ga+3] (centres unmarked) [^68Ga-PSMA-617]
Blood ([1]; 15 min p.i.): 6.88 ± 0.89 % IA/g
Bone ([1]; 15 min p.i.): 1.72 ± 0.06 % IA/g
Heart ([1]; 15 min p.i.): 2.61 ± 0.49 % IA/g
Intestines ([1]; 15 min p.i.): 1.55 ± 0.19 % IA/g
Kidneys ([1]; 15 min p.i.): 22.8 ± 0.81 % IA/g
Liver ([1]; 15 min p.i.): 4.74 ± 0.43 % IA/g
Lung ([1]; 15 min p.i.): 4.70 ± 0.09 % IA/g
Muscle ([1]; 15 min p.i.): 1.53 ± 0.24 % IA/g
Salivary glands ([1]; 15 min p.i.): 2.30 ± 0.37 % IA/g
Spleen ([1]; 15 min p.i.): 3.92 ± 0.28 % IA/g
Stomach ([1]; 15 min p.i.): 1.48 ± 0.09 % IA/g
PC-3 flu Tumor ([1]; 15 min p.i.): 2.30 ± 0.18 % IA/g
PC-3 PIP Tumor ([1]; 15 min p.i.): 28.7 ± 5.26 % IA/g
Blood ([1]; 30 min p.i.): 3.46 ± 0.98 % IA/g
Bone ([1]; 30 min p.i.): 1.00 ± 0.17 % IA/g
Heart ([1]; 30 min p.i.): 1.47 ± 0.34 % IA/g
Intestines ([1]; 30 min p.i.): 0.98 ± 0.28 % IA/g
Kidneys ([1]; 30 min p.i.): 15.5 ± 3.46 % IA/g
Liver ([1]; 30 min p.i.): 2.91 ± 0.65 % IA/g
Lung ([1]; 30 min p.i.): 2.55 ± 0.51 % IA/g
Muscle ([1]; 30 min p.i.): 0.80 ± 0.10 % IA/g
Salivary glands ([1]; 30 min p.i.): 1.06 ± 0.23 % IA/g
Spleen ([1]; 30 min p.i.): 2.50 ± 0.82 % IA/g
Stomach ([1]; 30 min p.i.): 1.09 ± 0.40 % IA/g
PC-3 flu Tumor ([1]; 30 min p.i.): 1.23 ± 0.35 % IA/g
PC-3 PIP Tumor ([1]; 30 min p.i.): 48.5 ± 8.51 % IA/g
Blood ([1]; 2 h p.i.): 0.14 ± 0.00 % IA/g
Bone ([1]; 2 h p.i.): 0.09 ± 0.02 % IA/g
Heart ([1]; 2 h p.i.): 0.09 ± 0.01 % IA/g
Intestines ([1]; 2 h p.i.): 0.12 ± 0.03 % IA/g
Kidneys ([1]; 2 h p.i.): 3.48 ± 0.18 % IA/g
Liver ([1]; 2 h p.i.): 1.60 ± 0.05 % IA/g
Lung ([1]; 2 h p.i.): 0.20 ± 0.00 % IA/g
Muscle ([1]; 2 h p.i.): 0.05 ± 0.01 % IA/g
Salivary glands ([1]; 2 h p.i.): 0.14 ± 0.03 % IA/g
Spleen ([1]; 2 h p.i.): 0.91 ± 0.14 % IA/g
Stomach ([1]; 2 h p.i.): 0.16 ± 0.11 % IA/g
PC-3 flu Tumor ([1]; 2 h p.i.): 0.18 ± 0.03 % IA/g
PC-3 PIP Tumor ([1]; 2 h p.i.): 55.8 ± 14.2 % IA/g
LogD values [2]: −4.30 ± 0.10
Kd (PSMA): 0.072 ± 0.029 µM
Relative PSMA-binding affinity (PSMA): 0.5

O=C([O-])CN1CCN(CC(=O)[O-])CCN(CC(=O)NCC2CCC(C(=O)N[C@@H](Cc3ccc4ccccc4c3)C(=O)NCCCC[C@H](NC(=O)N[C@@H](CCC(=O)O)C(=O)O)C(=O)O)CC2)CCN(CC(=O)[O-])CC1.[177Lu+3] (some centres unmarked) [^177Lu-PSMA-617]
Blood ([1]; 15 min p.i.): 7.28 ± 0.32 % IA/g
Bone ([1]; 15 min p.i.): 2.03 ± 0.10 % IA/g
Heart ([1]; 15 min p.i.): 2.87 ± 0.17 % IA/g
Intestines ([1]; 15 min p.i.): 1.64 ± 0.12 % IA/g
Kidneys ([1]; 15 min p.i.): 30.8 ± 4.52 % IA/g
Liver ([1]; 15 min p.i.): 1.63 ± 0.27 % IA/g
Lung ([1]; 15 min p.i.): 4.76 ± 0.55 % IA/g
Muscle ([1]; 15 min p.i.): 1.78 ± 0.21 % IA/g
Salivary glands ([1]; 15 min p.i.): 2.11 ± 0.19 % IA/g
Spleen ([1]; 15 min p.i.): 2.85 ± 0.38 % IA/g
Stomach ([1]; 15 min p.i.): 1.70 ± 0.12 % IA/g
PC-3 flu Tumor ([1]; 15 min p.i.): 2.49 ± 0.45 % IA/g
PC-3 PIP Tumor ([1]; 15 min p.i.): 32.3 ± 3.54 % IA/g
Blood ([1]; 30 min p.i.): 3.05 ± 0.81 % IA/g
Bone ([1]; 30 min p.i.): 1.07 ± 0.27 % IA/g
Heart ([1]; 30 min p.i.): 1.32 ± 0.28 % IA/g
Intestines ([1]; 30 min p.i.): 1.13 ± 0.45 % IA/g
Kidneys ([1]; 30 min p.i.): 22.6 ± 1.78 % IA/g
Liver ([1]; 30 min p.i.): 0.90 ± 0.15 % IA/g
Lung ([1]; 30 min p.i.): 2.51 ± 0.44 % IA/g
Muscle ([1]; 30 min p.i.): 0.75 ± 0.20 % IA/g
Salivary glands ([1]; 30 min p.i.): 1.01 ± 0.27 % IA/g
Spleen ([1]; 30 min p.i.): 1.55 ± 0.05 % IA/g
Stomach ([1]; 30 min p.i.): 0.98 ± 0.35 % IA/g
PC-3 flu Tumor ([1]; 30 min p.i.): 1.22 ± 0.32 % IA/g
PC-3 PIP Tumor ([1]; 30 min p.i.): 47.0 ± 3.52 % IA/g
Bone ([1]; 2 h p.i.): 0.12 ± 0.07 % IA/g
Heart ([1]; 2 h p.i.): 0.06 ± 0.00 % IA/g
Intestines ([1]; 2 h p.i.): 0.14 ± 0.06 % IA/g
Kidneys ([1]; 2 h p.i.): 3.97 ± 0.56 % IA/g
Liver ([1]; 2 h p.i.): 0.13 ± 0.02 % IA/g
Lung ([1]; 2 h p.i.): 0.15 ± 0.03 % IA/g
Muscle ([1]; 2 h p.i.): 0.04 ± 0.02 % IA/g
Salivary glands ([1]; 2 h p.i.): 0.10 ± 0.03 % IA/g
Spleen ([1]; 2 h p.i.): 0.21 ± 0.03 % IA/g
Stomach ([1]; 2 h p.i.): 0.08 ± 0.02 % IA/g
PC-3 flu Tumor ([1]; 2 h p.i.): 0.13 ± 0.01 % IA/g
PC-3 PIP Tumor ([1]; 2 h p.i.): 45.8 ± 4.02 % IA/g
PC-3 flu Tumor ([1]; 4 h p.i.): 0.08 ± 0.01 % IA/g
PC-3 PIP Tumor ([1]; 4 h p.i.): 56.0 ± 8.0 % IA/g
Blood ([1]; 6 h p.i.): 0.02 ± 0.00 % IA/g
Bone ([1]; 6 h p.i.): 0.05 ± 0.01 % IA/g
Heart ([1]; 6 h p.i.): 0.03 ± 0.00 % IA/g
Intestines ([1]; 6 h p.i.): 0.03 ± 0.00 % IA/g
Kidneys ([1]; 6 h p.i.): 2.47 ± 0.28 % IA/g
Liver ([1]; 6 h p.i.): 0.09 ± 0.01 % IA/g
Lung ([1]; 6 h p.i.): 0.06 ± 0.02 % IA/g
Muscle ([1]; 6 h p.i.): 0.02 ± 0.01 % IA/g
Salivary glands ([1]; 6 h p.i.): 0.04 ± 0.00 % IA/g
Spleen ([1]; 6 h p.i.): 0.11 ± 0.01 % IA/g
Stomach ([1]; 6 h p.i.): 0.05 ± 0.01 % IA/g
PC-3 flu Tumor ([1]; 6 h p.i.): 0.06 ± 0.01 % IA/g
PC-3 PIP Tumor ([1]; 6 h p.i.): 55.4 ± 1.67 % IA/g
LogD values [2]: −4.18 ± 0.06
Kd (PSMA): 0.039 ± 0.023 µM
Relative PSMA-binding affinity (PSMA): 1.0
